Read-outs that look alike come from different tables or passages of the source.
How the values were obtained:
[1] = test system: U87 glioblastoma cells; experiment: Apoptosis, Annexin V-FITC/PI staining by FACS; format: cell-based, human
[2] = parameters: AUC in plasma: unit not given beside the values; details: mouse, in vivo, inhaled or intranasal
[3] = test system: U87 cells; experiment: Inhibition of glioblastoma cell line U87, 24-h growth inhibitory concentration; format: cell-based, human; details: 24-hour growth inhibition
[4] = in vivo; details: mouse, ip, 58 mg/kg
[5] = test system: A549 human non-small lung cancer cells; experiment: Orthotopic A549-GFP lung tumor model in Ncr nude mice (efficacy of phospho-ibuprofen amide 1); format: in vivo; details: 200 mg/kg once a week for 8 weeks; compound 1 liposomal; versus control
[6] = Biodistribution of liposomal phospho-ibuprofen amide 1 in mice after i.v. administration; format: in vivo; details: single 200 mg/kg i.v. dose, 1 h
[7] = test system: heart tissue; experiment: Cardiotoxicity, histology of heart tissue sections from treated mice; details: mice treated for about 1.5 months
[8] = test system: Salmonella Typhimurium (TA98 and TA100); experiment: Genotoxicity, reverse mutations in Salmonella with and without rat liver S9; details: strains TA98 and TA100, presence and absence of rat liver S9
[9] = test system: A549 human non-small cell lung cancer cells; experiment: Subcutaneous A549 xenograft in NOD SCID mice (efficacy of PTI 93); format: in vivo, mouse; details: end of study, factoring in the 0 time value
Procedure: A549 human non-small cell lung cancer cells (1.5×10^5) were injected subcutaneously in the left and right flanks of 5-6-week-old female NOD SCID mice (Taconic Farms, Germantown, N.Y.). When the average tumor volume reached 100 mm^3, mice were treated by oral gavage of 10 or 15 mg/kg/day PTI 93 or vehicle (corn oil) for 2 weeks, when they were sacrificed and the tumors were harvested.

[10] = Pharmacokinetics study of PTI 93 in mice (plasma levels); details: single i.p. dose of 100 mg/kg PTI 93, mice

In the case of `CCCC(CCC)C(=O)Oc1ccc(COP(=O)(OCC)OCC)cc1` [PV 116, Phosphovalproic Acid], the “fold-increase of annexinV (+) cells” value [1] is reported as 3.0 fold.
With `CC1=C(CC(=O)O)c2cc(F)ccc2/C1=C\c1ccc(S(C)(=O)=O)cc1` [Sulindac sulfone 132, sulindac sulfone] the AUC in plasma ([2]; BALB/c nude) was 142.4, the Cmax ([2]; BALB/c nude) was 10.4 µM and the Tmax in lung ([2]; BALB/c nude) was 8 h. The Tmax in plasma ([2]; BALB/c nude) was 8 h, the AUC in lung [2] was 57.5 nmol·h/g and the Cmax in lung [2] was 4.6 nmol/g.
With `CC1=C(CC(=O)O)c2cc(F)ccc2/C1=C\c1ccc([S+](C)[O-])cc1` (stereo not shown) [Sulindac, sulindac] the AUC in lung [2] was 30.1 nmol·h/g, the AUC in plasma [2] was 49.5 and the Tmax in lung [2] was 0 h. It also gave a Tmax in plasma [2] of 0 h and an IC50 [3] of at least 1000 µM.
`COc1ccc2c(c1)c(CC(=O)O)c(C)n2C(=O)c1ccc(Cl)cc1` [indomethacin 127, indomethacin] gave an AUC(0-t) [4] of 500 µM·h and a Cmax [4] of 127 µM.
In the case of `CCOP(=O)(OCC)OCCCCNC(=O)C(C)c1ccc(CC(C)C)cc1` (stereo not shown) [phospho-ibuprofen amide 1, Phosphoric acid diethyl ester 4-[2-(4-isobutyl-phenyl)-propionylamino]-butyl ester], the “reduction based on lung tumor weight (lung weight)” value [5] is reported as 80%, the “reduction of lung cancer based on fluorescence” value [5] is reported as 95% and the “biodistribution (drug concentration in blood and major organs)” value [6] is reported as “preferentially accumulated in lungs”.
`CSc1ccc(/C=C2/C(C)=C(CC(=O)O)c3cc(F)ccc32)cc1` [Sulindac sulfide 131, sulindac sulfide] showed an AUC in plasma ([2]; BALB/c nude) of 66.9 and an AUC in lung [2] of 18.9 nmol·h/g.
For `CCOP(=O)(OCC)OCCc1ccc(OC(=O)Cc2c(C)n(C(=O)c3ccc(Cl)cc3)c3ccc(OC)cc23)cc1` [PTI 93, [1-(4-Chloro-benzoyl)-5-methoxy-2-methyl-1H-indol-3-yl]-acetic acid 4-[2-(diethoxy-phosphoryloxy)-ethyl]-phenyl ester], the “cardiotoxicity (histology, treated versus healthy control mice)” value [7] was “no differences”, the “genotoxicity (reverse mutations)” value [8] was “no genotoxicity” and the “reduction of tumor volume” value ([9]; 10 mg/kg/day oral gavage for 2 weeks) was 85%. For the same compound, the “reduction of tumor volume” value ([9]; 15 mg/kg/day oral gavage for 2 weeks) was 96%, the “time of maximum plasma concentration of intact PTI” value [10] was 2 h and the “plasma level of intact PTI 4 hours post administration” value ([10]; 4 hours) was “undetectable”.

Source: patent US20140178461A1, “COMPOUNDS AND COMPOSITIONS FOR USE IN THE TREATMENT AND PREVENTION OF LUNG AND BRAIN CANCER AND PRECANCEROUS CONDITIONS THEREOF” (priority 2012, published 2014)
